pIC50: −log10 of the molar value.
Experiments:
PTGR2 [1] = target: T1, PTGR2 (Homo sapiens, UniProt Q8N8N7); experiment: gel-based ABPP, HHS-475 probe, HEK293T cells expressing recombinant PTGR2; type: cell-based; conditions: 25 μM-0.1 μM, 2 h; HHS-475 25 μM 2 h; compared with AMC-0702, HHS-0701
T1 construct: host or cells: HEK293T
Method: HEK293T cells at 30-50% confluency were transfected with 2.6 μg of FAH or PTGR2 plasmid DNA in a serum-free media/polyethyleneimine solution for 48 hrs. The cells were washed once with warm, sterile DPBS (1×, 5 mL), and then 10 mL of serum-free media (supplemented with 1% L-glutamine) containing either DMSO or SuTEx fragment (in DMSO) was added. After 2 hrs, the cells were treated with 100 μM of SuTEx alkyne probe (HHS-475, 10 μL of 1000× DMSO stock) and incubated for an additional 2 hrs. The media was aspirated and cells washed with cold PBS (5 mL) and harvested. Cells were spun at 500×g for 5 min at 4° C. and supernatant was removed. Pellets were resuspended in 1 mL of cold DPB S and spun at 1,400×g for 3 min at 4° C. and supernatant was removed. The cells were lysed in PBS by sonication and fractionated (100,000×g, 45 min, 4° C.). The soluble fraction was diluted to 1 mg/mL in PBS and 49 μL was used for analysis. […] The samples were analyzed by SDS-PAGE (30 μL) and imaged by in-gel fluorescence scanning.
Confirmatory studies were also performed on prostaglandin reductase 2 (PTGR2) because of its role in the reduction of the bioactive lipid, 15-keto-PGE2^[17]. […] The remaining fluorescent signal detected on PTGR2 Y100F mutant protein is likely due to probe labeling of additional tyrosine sites identified on wild-type protein.
To assess the PTGR2 inhibitory activity of AMC-0702 and AMC-0703, HEK293T cells expressing PTGR2 were pretreated with vehicle, HHS-0101 (25 μM), HHS-0701 (25 μM), AMC-0702 (25 μM-0.1 μM), or AMC-0703 (25 μM-0.1 μM) for 2 hours followed by HHS-475 probe labelling in live cells (25 μM, 2 hours). Cells were lysed and probe-modified PTGR2 in proteomes detected by copper-catalyzed azide-alkyne cycloaddition conjugation of rhodamine-azide, SDS-PAGE, and in-gel fluorescence scanning. Inhibitory activity of compounds is determined by reductions in fluorescent band intensity from HHS-475 probe labeling of proteins detected in proteomes. […]

PTGR2 [2] = target: T1, PTGR2; experiment: in vitro gel-based chemical proteomics competition, RJS-1027 probe; type: binding; conditions: inhibitor 0.5 μM, RJS-1027 1 μM, HEK293T soluble proteome
Method: Cell pellets were lysed in PBS buffer (EDTA free) by sonicating 3 times for 1 second×20% amplitude. The lysate was fractionated by centrifuging at 100,000×g for 45 min at 4° C., separating membrane and soluble fractions. Only the soluble fraction was used for in vitro and in situ experiments. Protein concentrations were measured using the Bio-Rad DC protein assay, and fractions were diluted to a concentration of 2 mg/mL in PBS. For live cell treated samples, 50 μL aliquots of proteome were used for gel experiments. For in vitro experiments, 48 μL aliquots of cell lysate were used for each inhibitor before adding 1 μL of 50× inhibitor stock (1 μM final) and incubated for 30 minutes at 37° C., then 1 μL of 50×probe stock (1 μM final) was added and the lysate incubated for 30 minutes at 37° C. […] 30 μL of each sample were separated by SDSPAGE and analyzed by in-gel fluorescence scanning for the rhodamine azide tag. […]
FIG. 9A is an image of an in vitro gel-based chemical proteomics assay using RJS-1027 (1 μM) as a probe to measure competition of binding PTGR2 with an inhibitor (0.5 μM). […] Quantitative comparison of inhibitor competition with probe labeling normalized to the negative control HHS-0101 is shown in FIG. 9B. […] Quantitative comparison of RJG-2036 competition with probe labeling normalized to the negative control HHS-0101 is shown in FIG. 9D.

[3] = target: T2, recombinant prostaglandin reductase 2 (PTGR2) (Homo sapiens, UniProt Q8N8N7); experiment: in situ gel-based chemical proteomics competition, RJS-1027 probe; type: cell-based; conditions: RJS-1027 1 μM, normalized to PTGR2 WT, two biological replicates, read-out: 50% inhibitory concentration (IC50), competition with probe labeling
T2 construct: host or cells: HEK293T
T2 sequence (Q8N8N7 whole entry): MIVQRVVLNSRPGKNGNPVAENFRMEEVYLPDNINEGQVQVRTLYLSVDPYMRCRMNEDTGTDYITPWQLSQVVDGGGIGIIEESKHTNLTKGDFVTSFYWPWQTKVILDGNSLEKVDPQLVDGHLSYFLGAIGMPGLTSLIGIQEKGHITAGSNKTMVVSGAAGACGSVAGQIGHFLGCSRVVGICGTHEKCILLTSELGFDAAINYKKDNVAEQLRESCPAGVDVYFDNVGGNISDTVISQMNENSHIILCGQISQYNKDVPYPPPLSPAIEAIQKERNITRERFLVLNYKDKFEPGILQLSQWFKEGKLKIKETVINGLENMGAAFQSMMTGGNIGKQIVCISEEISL
Method: HEK293T cells were grown to 30-40% confluency and transiently transfected with wild type PTGR2 or Y100F PTGR2 mutant plasmid or DMSO by dissolving 20 μL of PEI (1 mg/mL) and 2.6 μg of plasmid in 0.6 mL of serum-free DMEM media. Transfected HEK293T cells were incubated at 37° C. with 5% CO2 and were harvested for in vitro experiments. For in situ experiments, cells were treated with either DMSO or inhibitors at a final concentration of 1 μM, or the indicated concentration, of inhibitors from a 1,000× stock in serum-free media. Cells were subsequently incubated at 37° C. with 5% CO2 for 2 hours, followed by treatment with DMSO or probe at a final concentration of 1 μM from a 1,000× stock in serum-free media. Cells were harvested and pelleted at 400×g for 5 min and the supernatant was decanted. […]
Cell pellets were lysed in PBS buffer (EDTA free) by sonicating 3 times for 1 second×20% amplitude. […] Protein concentrations were measured using the Bio-Rad DC protein assay, and fractions were diluted to a concentration of 2 mg/mL in PBS. […] 30 μL of each sample were separated by SDSPAGE and analyzed by in-gel fluorescence scanning for the rhodamine azide tag. […]
Anti-flag and GAPDH western blots are shown below the long gel and were performed separately. Quantitation of RJG-2036 competition with probe labeling normalized to the PTGR2 WT with RJS-1027 as a probe is shown in FIG. 10C.

T1 sequence (Q8N8N7 whole entry): as above

Row | Structure (SMILES) | potency against PTGR2 (reduction of HHS-475 probe labeling) (PTGR2 [1]) | competition of probe binding to PTGR2 (PTGR2 [2]) | pIC50 [3]
1 | COc1ccccc1N1CCN(C(=O)c2ccc(S(=O)(=O)n3cncn3)cc2)CC1 [AMC-0703, (4-((1H-1,2,4-triazol-1-yl)sulfonyl)phenyl)(4-(2-methoxyphenyl)piperazin-1-yl)methanone] | highest potency against PTGR2 | potent inhibitors | –
2 | COc1ccccc1N1CCN(C(=O)c2ccc(S(=O)(=O)n3cnc(-c4cccnc4)n3)cc2)CC1 [RJG-1189, (4-(2-methoxyphenyl)piperazin-1-yl)(4-((3-(pyridin-3-yl)-1H-1,2,4-triazol-1-yl)sulfonyl)phenyl)methanone] | – | potent inhibitors | –
3 | COc1ccccc1N1CCN(C(=O)c2cccc(S(=O)(=O)n3cncn3)c2)CC1 [RJG-2036, (3-((1H-1,2,4-triazol-1-yl)sulfonyl)phenyl)(4-(2-methoxyphenyl)piperazin-1-yl)methanone] | – | – | 7.05

Source: US20240210412A1, “SULFONYL-TRIAZOLE COMPOUNDS USEFUL AS LIGANDS AND INHIBITORS OF PROSTAGLANDIN REDUCTASE 2” (University of Virginia Patent Foundation, priority 2021, published 2024)
